One test relates to LNCaP cells. The experiment in a line: Dose-response matrix, viability of LNCaP cells. The following applies: 3 days, antiandrogen in combination with phenprocoumon. Format: cell-based.
The subject of test [1] is AR signaling canonical targets (KLK3, TMPRSS2, KLK2) and AR. Kind of test: RT-qPCR of AR and canonical targets of AR signaling in LNCaP cells. Type of test: cell-based. To be noted: 24 hours. The protocol: The RNeasy kit (Qiagen, Venlo, Netherlands) was used to extract RNA. cDNA was produced and reverse transcription quantitative polymerase chain reaction performed using the High Capacity cDNA Reverse Transcription kit and the SYBR Green Master mix from Thermo Fisher Scientific. Reverse transcription quantitative polymerase chain reaction was performed on a LightCycler 480 (Roche, Basel, Switzerland).

The target of test [2] is T1, androgen receptor (AR) (Homo sapiens, UniProt P10275, T878A).
T1 construct: AR immunoprecipitated from LNCaP cells treated with either DMSO or phenprocoumon; host or cells: LNCaP
T1 sequence (P10275 whole entry T878A): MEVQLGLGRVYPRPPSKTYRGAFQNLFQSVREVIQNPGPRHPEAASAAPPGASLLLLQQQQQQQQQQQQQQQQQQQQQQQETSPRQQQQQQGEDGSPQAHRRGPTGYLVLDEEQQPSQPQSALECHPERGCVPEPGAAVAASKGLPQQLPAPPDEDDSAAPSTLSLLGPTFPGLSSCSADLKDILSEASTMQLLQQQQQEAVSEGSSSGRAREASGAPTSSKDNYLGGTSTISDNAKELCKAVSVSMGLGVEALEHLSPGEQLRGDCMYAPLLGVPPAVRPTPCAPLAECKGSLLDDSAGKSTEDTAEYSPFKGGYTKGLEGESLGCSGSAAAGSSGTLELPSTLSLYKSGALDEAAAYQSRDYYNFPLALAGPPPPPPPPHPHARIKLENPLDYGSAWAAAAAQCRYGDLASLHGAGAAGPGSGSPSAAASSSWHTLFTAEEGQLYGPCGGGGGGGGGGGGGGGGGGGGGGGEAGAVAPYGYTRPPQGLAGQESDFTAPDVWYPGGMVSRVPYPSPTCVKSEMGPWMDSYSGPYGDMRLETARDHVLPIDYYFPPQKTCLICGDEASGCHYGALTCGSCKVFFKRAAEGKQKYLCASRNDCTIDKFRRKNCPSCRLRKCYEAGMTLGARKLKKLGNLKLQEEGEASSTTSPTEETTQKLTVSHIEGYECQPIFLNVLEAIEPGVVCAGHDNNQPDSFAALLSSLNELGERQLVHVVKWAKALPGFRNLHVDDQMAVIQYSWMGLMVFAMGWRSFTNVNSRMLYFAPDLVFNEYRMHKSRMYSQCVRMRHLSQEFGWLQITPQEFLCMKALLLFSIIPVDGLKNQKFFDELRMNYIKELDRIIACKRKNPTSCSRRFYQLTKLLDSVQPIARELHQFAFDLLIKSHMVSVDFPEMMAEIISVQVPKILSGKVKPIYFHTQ
The experiment in a line: Cellular thermal shift assay (CETSA). Format: binding.
Description: LNCaP cells were treated with DMSO or 35 μM PPC for 2 days and then harvested maintaining a constant concentration of PPC in all subsequent handling buffers. Otherwise, lysates were directly treated with the drug as already described (Martinez Molina D et al., Science, 2013, 341:84-7).

Test [3] deals with androgen receptor (AR). The experiment in a line: 2D difference gel electrophoresis (DIGE) of immunoprecipitated AR. Type of test: cell-based. The following applies: AR immunoprecipitated from LNCaP cells, versus DMSO.
Description: (§1) Cells were lysed in IP buffer (50 mM Tris pH 8, 150 mM NaCl, 1% Igepal) supplemented with a cocktail of protease inhibitors (Roche). Immunoprecipitations were performed at 4° C. and using Dynabeads Protein G (Thermo Fisher Scientific). Lysates were precleared with beads for 30 minutes, incubated with antibodies overnight (1 μg antibody was used for 50 μg protein) and immunoprecipitated for 2 hours. After washing, immunoprecipitated proteins were eluted by either boiling in Laemmli buffer or using 50 mM glycine pH 2.8.
IP lysates eluted with glycine buffer were used for 2D difference gel electrophoresis (DIGE). […] Rehydration and isoelectric focusing on IPG strips (ReadyStrip IPG Strips, 11 cm, pH 3-10, non-linear (BioRad)) was followed by SDS-PAGE on gradient gels (Criterion, Any kD, BioRad) and detection with a Typhoon fluorescence scanner at the recommended excitation and emission wavelengths for G-Dye200 and G. Images were analyzed using Delta2D 4.3 software (Decodon, Greifswald, Germany).
The inventors then assessed whether phenprocoumon treatment could otherwise modify AR and analyzed the migration pattern of the protein by means of 2D gel electrophoresis (see FIG. 13H).
The test system of a further test is γ-carboxylated AR. The experiment in a line: γ-carboxylation in LNCaP cells (western blotting, immunoprecipitation with anti-γ-carboxyglutamyl antibody). Format: cell-based. To be noted: LNCaP lysates, increasing amounts of phenprocoumon.

Description for γ-carboxylated AR: Cells were lysed in RIPA buffer supplemented with a cocktail of protease inhibitors (Roche). Lysates were resolved by sodium dodecyl sulfate-polyacrylamide gel electrophoresis. AR (#5153) and GAPDH (#5174) antibodies were purchased from Cell Signaling Technology (Danvers, Mass., USA). αTUB antibody (ab7291) was purchased from Abcam (Cambridge, UK). Anti-γ-carboxyglutamyl antibody (REF 3570) was purchased from Sekisui Diagnostics (Lexington, Mass., USA).
as §1

As for `CNC(=O)c1ccc(N2C(=S)N(c3ccc(C#N)c(C(F)(F)F)c3)C(=O)C2(C)C)cc1F` [enzalutamide], the “synergy in combination with phenprocoumon” value with LNCaP cells is “synergistic interaction with phenprocoumon, albeit to a lower extent compared to flutamide”.

Regarding `CC1(C)NC(=O)N(c2ccc([N+](=O)[O-])c(C(F)(F)F)c2)C1=O` [nilutamide], the “synergy in combination with phenprocoumon” value with LNCaP cells is “synergistic interaction with phenprocoumon, albeit to a lower extent compared to flutamide”.

As to `CCC(c1ccccc1)c1c(O)c2ccccc2oc1=O` (centres unmarked) [phenprocoumon], in test [1] (10 nM R1881 ± 35 μM PPC), the “effect on induction of AR signaling (KLK3, KLK2) by R1881” value is reported as “did not interfere with the induction of AR signaling”. The “expression of AR signaling canonical targets KLK3, TMPRSS2 and KLK2” value in test [1] (steroid-deprived medium, 15 μM flutamide, 35 μM PPC) is “did not affect the expression of these genes”. Besides, the “thermal stability of AR” value is listed as “did not stabilize AR” on androgen receptor (AR) [2] (LNCaP cell lysates treated with 100 μM PPC for 30 min, no pretreatment) and “affects the thermal stability of AR” on androgen receptor (AR) [2] (LNCaP cells treated with 35 μM PPC for 2 days). Besides, in the test with androgen receptor (AR) [3], the “isoelectric point of AR (migration pattern)” value is “migrated at a higher isoelectric point”. Moreover, the “amount of AR immunoprecipitated with γ-carboxylation-specific antibody” value with γ-carboxylated AR is listed as “reduced the amount of immunopreciptated protein in a dose-dependent manner”.

The values are drawn from patent publication US10864190B2 (CeMM—Forschungszentrum für Molekulare Medizin GmbH, priority 2015, dated 2020).
